Measured values from patent publication US20090012071A1, “4-SUBSTITUTED-1H-ISOTHIAZOLO[5,4-B][1,4]OXAZINO[2,3,4-IJ]QUINOLINE-7,8(2H,9H)-DIONES AND RELATED COMPOUNDS AS ANTI-INFECTIVE AGENTS” (priority 2007, published 2009).
Each block holds one molecule with its values, some of them ahead of it.

What was measured:
[1] = test system: MRSA S. aureus (FQR700699); test: Minimum inhibitory concentration (MIC) assay, broth microdilution; format: cell-based; design: MIC MRSA: unit not given beside the values; details: for MIC MRSA: Table I
Description: (§1) The antimicrobial activity of the compounds of the invention may be evaluated by a number of methods, including the following visual minimum inhibitory concentration (MIC) assay. This assay determines the minimum concentration of compound required to inhibit growth of a bacterial strain.
(§2) Whole-cell antibacterial activity is determined by broth microdilution using conditions recommended by the NCCLS (see National Committee for Clinical Laboratory Standards. 2001. Performance standards for antimicrobial susceptibility testing: 11th informational supplement. Vol. 21, no. 1, M100-S11. National Committee for Clinical Laboratory Standards, Wayne, Pa.). Test compounds are dissolved in DMSO and diluted 1:50 in Mueller-Hinton II broth (Becton-Dickinson) to produce a 256 μg/ml stock solution. In a 96-well microtiter plate, the compound solution is serially two-fold diluted in Mueller-Hinton II broth. After the compounds are diluted, a 50 μl aliquot of the test organism (˜1×10^6 cfu/mL) is added to each well of the microtiter plate. The final test concentrations ranges from 0.125-128 μg/mL. Inoculated plates are incubated in ambient air at 37° C. for 18 to 24 hours. The organisms selected for testing included laboratory strains S. aureus ATCC 29213 and E. coli ATCC 25922 (strains purchased from American Type Culture Collection, Manassas, Va.), S. aureus FQR700699, and Paeruginosa 27853. The minimum inhibitory concentration (MIC) is determined as the lowest concentration of compound that inhibited visible growth of the test organism.

[2] = test system: CHO (Chinese hamster ovary); details: CHO cells, positive control; cited from earlier work
[3] = test system: Hep 2 (laryngeal carcinoma); details: Hep 2 cells, positive control; cited from earlier work
E. coli ATCC 25922 = test: Minimum inhibitory concentration (MIC) assay, broth microdilution; format: cell-based
Description: as §1
as §2, with “The organisms selected for testing included laboratory strains S. aureus ATCC 29213 and E. coli ATCC 25922 (strains purchased from American Type Culture Collection, Manassas, Va.), S. aureus FQR700699, and Paeruginosa 27853.” left out

[4] = test system: S. aureus ATCC 29213 (MSSA); test: as above; format: cell-based; details: methicillan sufficient S. aureus
Description: as §1
as §2, with “The organisms selected for testing included laboratory strains S. aureus ATCC 29213 and E. coli ATCC 25922 (strains purchased from American Type Culture Collection, Manassas, Va.), S. aureus FQR700699, and Paeruginosa 27853.” left out

SMILES: C[C@H]1COc2c(N3CCNCC3)c(F)cc3c(=O)c4c(=O)[nH]sc4n1c23 [compound 9, (S)-5-fluoro-1-methyl-4-(piperazin-1-yl)-1H-isothiazolo[5,4-b][1,4]oxazino[2,3,4-ij]quinoline-7,8(2H,9H)-dione]
MIC MRSA [1]: 8

SMILES: CC(C)(C)c1ccc(C(O)CCCN2CCC(C(O)(c3ccccc3)c3ccccc3)CC2)cc1 (stereo not drawn) [Terfenadine]
CC50 [2]: 4.3 to 6.5 µM
CC50 [3]: 3 to 5 µM

SMILES: C[C@H]1COc2c(N3CC[C@@H](C(C)(C)N)C3)c(F)cc3c(=O)c4c(=O)[nH]sc4n1c23 [Compound II, (S)-4-((R)-3-(2-aminopropan-2-yl)pyrrolidin-1-yl)-5-fluoro-1-methyl-1H-isothiazolo[5,4-B][1,4]oxazino[2,3,4-ij]quinoline-7,8(2H,9H)-dione]
minimal inhibitory concentration (MIC) ([1]; methicillan resistant S. aureus): 0.125
minimal inhibitory concentration (MIC) (E. coli ATCC 25922): 0.062
minimal inhibitory concentration (MIC) [4]: 0.016

More lines, now with the values ahead:

MIC MRSA [1]: 4
SMILES: C[C@H]1COc2c(N3CCN(C)CC3)c(F)cc3c(=O)c4c(=O)[nH]sc4n1c23 [compound 6, (S)-5-fluoro-1-methyl-4-(4-methylpiperazin-1-yl)-1H-isothiazolo[5,4-b][1,4]oxazino[2,3,4-ij]quinoline-7,8(2H,9H)-dione]

MIC MRSA [1]: 1
SMILES: C[C@H]1COc2c(N3CC[C@H](N)C3)c(F)cc3c(=O)c4c(=O)[nH]sc4n1c23 [compound 7, (S)-4-((S)-3-aminopyrrolidin-1-yl)-5-fluoro-1-methyl-1H-isothiazolo[5,4-b][1,4]oxazino[2,3,4-ij]quinoline-7,8(2H,9H)-dione]

MIC MRSA [1]: 0.5
SMILES: C[C@H]1COc2c(N3CC[C@@H](CN)C3)c(F)cc3c(=O)c4c(=O)[nH]sc4n1c23 [compound 8, (S)-4-((S)-3-(aminomethyl)pyrrolidin-1-yl)-5-fluoro-1-methyl-1H-isothiazolo[5,4-b][1,4]oxazino[2,3,4-ij]quinoline-7,8(2H,9H)-dione]
